This series in a line: Biodistribution Data of Selected Tc-99m(III) Complexes in Guinea Pigs. As to conditions: for Heart/Blood / Heart/Liver: ratio. In kind it is in vivo.

The values that follow come from patent US5112594A, “Kit for preparing a technetium-99m myocardial imaging agent” (Mallinckrodt Medical, Inc., priority 1991, dated 1992).

Turning to “trans-[1,2-bis[dihydro-2,2,5,5-tetramethyl-3(2H)furanone-4-methyleneamino]ethane]bis-[tris(2-(2-(1,3-dioxanyl))]ethylphosphine]technetium-99m(III) [Complex IV]”, for the setting “5 min”, the “% Heart uptake” value worked out at 0.8 % Injected dose/Organ, the Heart/Blood came to 5.4 and the Heart/Liver is reported as 1.2. Under “60 min”, the “% Heart uptake” value is on record as 0.9 % Injected dose/Organ, the Heart/Blood is given as 58.6 and the Heart/Liver turned out to be 3.0.

Turning to “trans-[1,2-bis[dihydro-2,2,5,5-tetramethyl-3(2H)furanone-4-methyleneamino]ethane]bis[tris(3-methoxypropyl)phosphine]technetium-99m(III) [Complex I]”, where the note is “5 min”, the “% Heart uptake” value was 0.8 % Injected dose/Organ, the Heart/Blood was 4.6 and the Heart/Liver is given as 1.5. Also, under “60 min”, the “% Heart uptake” value was found to be 0.9 % Injected dose/Organ, the Heart/Blood came out at 35.6 and the Heart/Liver is 6.6.

For the substance “trans-[1,2-bis[dihydro-2,2,5,5-tetramethyl-3(2H)furanthione-4-methyleneamino]ethane]-bis[tris(3-methoxypropyl)phosphine]technetium-99m (III) [Complex III]”, where the note is “5 min”, the “% Heart uptake” value was determined as 1.1 % Injected dose/Organ, the Heart/Blood amounted to 5.9 and the Heart/Liver came out at 0.9. For the setting “60 min”, the “% Heart uptake” value is 1.0 % Injected dose/Organ, the Heart/Blood is on record as 3.5 and the Heart/Liver amounted to 1.5.

As for “trans-[1-[dihydro-2,2,5,5-tetramethyl-3(2H)furanthione-4-methyleneamino]-2-[dihydro-2,2,5,5-tetramethyl-3(2H)furanone-4-methyleneaminoethane]bis[tris(3-methoxypropyl)phosphine]technetium-99m(III) [Complex II]”, where the note is “5 min”, the “% Heart uptake” value is given as 0.9 % Injected dose/Organ, the Heart/Blood is 6.1 and the Heart/Liver stood at 1.6. Besides, under “60 min”, the “% Heart uptake” value was 0.8 % Injected dose/Organ, the Heart/Blood is recorded as 26.5 and the Heart/Liver came out at 5.6.
